Reference: patent publication US9289443B2, “Pharmaceutical composition and method for preventing or treating hepatitis C” (INDUSTRIAL TECHNOLOGY RESEARCH INSTITUTE, priority 2010, dated 2016)
Like-named read-outs stand apart in the source and are kept apart here.

Experiments:
[1] = tested on: HCV replicon system (Huh-luc/neo-ET cell carrying I389luc-ubi-NS3-3'/ET); assay: Inhibition of the HCV replication by determining the firefly luciferase activity (HCV replicon system); assay type: cell-based, Hepatitis C virus; settings: for inhibition at 10 µM / Inhibition rate (%): compound concentration 10 μM; for EW (CC50/IC50): ratio of CC50/IC50
From the text: HCV replicon system was used to test the effects of compounds on the treatment and prevention of hepatitis C. The HCV replicon system has been acknowledged as a screening tool for new drugs (Lohmann, V. et al., 1999, Replication of subgenomic hepatitis C virus RNAs in hepatoma cell line, Science. Vol. 285, 110-113; Bartenschlager, R. 2002, Hepatitis C virus replicons: potential role for drug development, Nature Reviews/Drug Discovery. Vol. 1, 911-916; Vorlijk, J. M. et al., 2003, A replicon-based bioassay for the measurement of interferons in patients with chronic hepatitis C, Journal of Virological Methods. 110:201-209). The HCV replicon system includes a Huh-luc/neo-ET cell carrying I389luc-ubi-NS3-3′/ET gene construct which monitors the replicative capability of the HCV. In the HCV replicon system, a firefly luciferase-ubiquitin-neomycin fusion protein is expressed by the translation of the internal ribosomal entry site (IRES) of the HCV, and the hepatitis C viral nonstructural proteins (NS3-5B), which includes protease, helicase and polymerase, are expressed by the translation of the IRES of the encephalomyocarditis virus (EMCV).
The IRES of the hepatitis C virus or the hepatitis C viral nonstructural proteins consist of a replication complex. When the replication complex is affected by the candidate compound, the activity of the HCV replicon system is inhibited and the activity of the luciferase is reduced. Accordingly, the inhibition of the HCV can be estimated by determining the activity of the intensity of the luciferase expressed by the Huh-luc/noe-ET cell.
Inhibition of the HCV Replication by Determining the Firefly Luciferase Activity
(§1) Huh-luc/neo-ET cells with a concentration of 2.5×10^4 cells/100 μl/well were seeded into a 96 well culture plate (Corning Incorporation COSTAR, 3599) and placed into a cell incubator for culturing.
The oleanolic acid derivatives as listed in Table 2 were co-cultured with Huh-luc/neo-ET cells for 2 days. The mediums were washed twice by 100 μl of 1×PBS (1 mM KH2PO4, 10 mM Na2HPO4, 137 mM NaCl, 2.7 mM KCl) and PBS was removed. 35 μl of 1× passive lysis buffer (Promega, E1941) was added to the cells and vortexed for 10 minutes to thoroughly lysis the cells.
30 μl/well of the cell suspension was then added to a 96 well white plate (NUNC, 236108) for the measurement of the luciferase activity. Subsequently, 40 μl/well of luminescence analysis buffer and 20 μl/well of luminescence substrate (1 mM D-Luciferin) were added into the 96 well white plates. The luciferase activity (Rlu/s) was measured by a microplate luminescence meter (Berthold, MPL4) immediately.
The luciferase activity of the control was set as a standard to calculate the inhibition rates (%) of HCV of the experiment groups. The inhibition rates was calculated by the following formula: […]
After the test compounds were serial diluted and the inhibition rates of the HCV replication were determined at different concentrations, the concentration at 50% inhibition of the HCV replication (IC50) was calculated by grafit5 software (Erithacus Software).
For each experiment, 0.5 ng/ml and 0.1 ng/ml of the PEG IFN alpha-2a were used as positive controls for the IC50 test. Meanwhile, 1 μg/ml of cyclosporine A (CsA) was also used as a positive control for the IC50 test.

Huh-luc/neo-ET cells = assay: Cell cytotoxic test (MTT) on Huh-luc/neo-ET cells; assay type: cell-based; settings: two-day culture; for CC15: concentration for 15% cell kill; for CC50: concentration for 50% cell kill
Procedure: (§2) Cell Cytotoxic Test on Huh-luc/noe-ET Cells
as §1
(§3) The next day, the oleanolic acid derivatives as listed in the following Tables 1 and 2 were diluted with a DMEM culture medium to the concentrations of 28.73 μg/ml, 9.57 μg/ml, 3.19 μg/ml, 1.06 μg/ml, 0.35 μg/ml, 0.11 μg/ml, 0.039 μg/ml and 0.013 μg/ml, respectively, or diluted to the concentrations of 114.92 μg/ml, 38.33 μg/ml, 12.77 μg/ml, 4.25 μg/ml, 1.42 μg/ml, 0.46 μg/ml, 0.16 μg/ml and 0.057 μg/ml, respectively. The initial medium in the 96 well culture plate was sucked out by a vacuum pump (DOAT-704AA) without removing the cells. Then, the culture medium containing the oleanolic acid derivatives were added into the 96 well culture plate containing 100 μl/well of the cells as the experiment groups, while the untreated culture mediums were added to the cells as a control.
(§4) After a two-day culture, the medium was removed and each well containing cells was washed by 100 μl of 1×PBS (1 mM KH2PO4, 10 mM Na2HPO4, 137 mM NaCl, 2.7 mM KCl) twice. Precipitates were recorded and PBS was removed. 50 μl of the medium containing 0.5 mg/ml of MTT (Sigma, M2128) was added into each well of the 96 well culture plate. The 96 well culture plate was placed in a CO2 culture incubator for 1 hour. Subsequently, 150 μl of DMSO (Riedel-de Haül, 60153) was added to each well of the 96 well culture plate and vortexed (KS shaker Type 670) to thoroughly mix the resulting purple precipitates. The 96 well culture plate was then placed in a continuous wave length microwell plate analysis system (Molecular Devices, SPECTRAMAX 190) to measure the absorbance of cells at a wavelength of 560 nm.
(§5) The average absorbance of the control was set as 100% of the cell survival rates (%) to calculate the cell survival rates (%) of the experiment groups with different concentrations of the oleanolic acid derivatives.
(§6) The cell survival rate was calculated by the following formula: Absorbance of the experiment group/Absorbance of the control×100%
(§7) The data of the cell survival rates for all experiment groups were plotted on an x-y graph to see the distribution. A trend line was obtained. […]

[2] = Cell cytotoxic test (MTT) on Huh-luc/neo-ET cells; assay type: cell-based; settings: human, concentration for 50% cell kill, two-day culture
Procedure: as §2, §1, §3, §4, §5, §6, §7

[3] = Hepatitis C virus, Huh-luc/neo-ET, 48 h, 2 days co-culture, luciferase activity, read-out: Inhibition rate (%)
[4] = Hepatitis C virus, concentration for 50% inhibition of the HCV replication, Huh-luc/neo-ET replicon cells, read-out: IC50
[5] = 2 days co-culture, luciferase activity

| Compound | inhibition at 10 µM [1, 3] | IC50 [1, 4] | EW (CC50/IC50) [1] | CC15 (Huh-luc/neo-ET cells) | CC50 at 2 days [2] | other results |
| --- | --- | --- | --- | --- | --- | --- |
| C[C@@H]1OC(O[C@H]2C(OC(=O)[C@]34CCC(C)(C)C[C@H]3C3=CC[C@@H]5[C@@]6(C)C[C@H](O)[C@@H]7OC8O[C@H](CO)[C@@H](O)[C@H](O)[C@H]8OC8OC[C@H](O)[C@H](O)[C@H]8OC(=O)CC(C)(O)CC(=O)OC[C@H]7[C@@H]6CC[C@@]5(C)[C@]3(C)CC4)OC[C@H](O)[C@@H]2O)[C@H](O)[C@H](OC2OC[C@@H](O)[C@H](O)[C@H]2O)[C@H]1O (stereo partly shown) [A02] | 96.7 ± 0.6% | 0.34 ± 0.06 µM | 44.71 | 2.9 µM | 15.2 µM |  |
| C/C=C(\C)C(=O)OC1C(OC(C)=O)C2(C(=O)O)C(CC1(C)C)C1=CCC3C4(C)CCC(OC5OC(CO)C(O)C(OC6OC(CO)C(O)C(OC7OC(C)C(O)C(O)C7O)C6O)C5O)C(C)(C)C4CCC3(C)C1(C)C(OC(C)=O)C2OC(C)=O (stereo not shown) [A18] | 45 ± 2.9% |  |  | 7.18 µM | 94.8 µM |  |
| CC(=O)OC1C(OC(=O)C(C)C)C2(CO)C(CC1(C)C)C1=CCC3C4(C)CCC(OC5OC(C)C(OC6OC(C(=O)O)C(O)C(OC7OC(CO)C(O)C(O)C7OC7OC(CO)C(O)C(O)C7O)C6O)C(O)C5O)C(C)(C)C4CCC3(C)C1(C)C(O)C2O (stereo not shown) [A13] |  | 3.31 ± 0.29 µM | 30.21 | 16.1 µM | 100 µM | inhibition at 15 µM ([1]; Hepatitis C virus, Huh-luc/neo-ET, 48 h, compound concentration 15 μM, 2 days co-culture, luciferase activity, read-out: Inhibition rate (%)): 93 ± 0.4% |
| CC(=O)NC1C(O[C@H]2CC[C@@]3(C)C(CC[C@]4(C)C3CC=C3C5CC(C)(C)CC[C@]5(C(=O)OC5OC(COC(=O)/C=C/c6ccccc6)C(OC6OC(CO)C(O)C(O)C6OC(C)=O)C(O)C5OC5OCC(OC6OCC(O)(CO)C6O)C(O)C5O)CC[C@]34C)C2(C)C)OC(COC2OCC(O)C(O)C2OC2OCC(O)C(O)C2O)C(OC2OC(CO)C(O)C(O)C2O)C1O (stereo partly shown) [A24] |  |  |  | 4.53 µM | 14.1 µM | inhibition at 4 µM ([1]; Hepatitis C virus, Huh-luc/neo-ET, 48 h, compound concentration 4 μM, 2 days co-culture, luciferase activity, read-out: Inhibition rate (%)): 54.8 ± 5.4% |
| CC(=O)OCC1OC(OC2COC(OC3COC(OC4C(OC5C(CO)OC(OC6CCC7(C)C(CCC8(C)C7CC=C7C9CC(C)(C)CCC9(C(=O)OC9OC(CO)C(O)C(O)C9OC9OCC(O)C(OC%10OCC(O)(CO)C%10O)C9O)C(O)CC78C)C6(C)C)C(O)C5O)OCC(O)C4O)C(O)C3O)C(O)C2O)C(OC(=O)/C=C/c2ccccc2)C(O)C1OC(C)=O (stereo not shown) [A06] |  | 0.01 ± 0.004 µM | 2520 | 8.9 µM | 25.2 µM | inhibition at 8 µM ([1]; Hepatitis C virus, Huh-luc/neo-ET, 48 h, compound concentration 8 μM, 2 days co-culture, luciferase activity, read-out: Inhibition rate (%)): 94.7 ± 1.1% |
| CC1(C)CC[C@]2(C(=O)O)CC[C@]3(C)C(=CCC4[C@@]5(C)C[C@@H](O)[C@H](O)[C@@](C)(COC(=O)/C=C/c6ccc(O)cc6)C5CC[C@]43C)C2C1 (stereo partly shown) [A08] | 0.4 ± 22% |  |  | 9.6 µM | 72 µM |  |
| C/C=C(/C)C(=O)OC1CC(C)(C)CC2C3=CCC4C5(C)CCC(OC6OC(C)C(OC7OC(C(=O)O)C(O)C(OC8OC(CO)C(O)C(O)C8OC8OC(CO)C(O)C(O)C8O)C7O)C(O)C6O)C(C)(C)C5CCC4(C)C3(C)C(OC(=O)/C=C/C=C/C=C/CCC)C(O)C12CO (stereo not shown) [A14] |  |  | 51.28 | 5.9 µM | > 100 µM | IC50 ([1]; Hepatitis C virus, Huh-luc/neo-ET): 1.95 ± 0.12 µM; inhibition at 5 µM ([1]; Hepatitis C virus, Huh-luc/neo-ET, 48 h, read-out: Inhibition rate (%)): 89.3 ± 0.8% |
| C=CC(C)(O)CC/C=C(\C)C(=O)OC1C(O)C(CO)OC(OC(=O)C23CCC(C)(C)CC2C2=CCC4C5(C)CCC(OC6OC(COC7OCC(O)C(O)C7OC7OCC(O)C(O)C7O)C(O)C(O)C6O)C(C)(C)C5CCC4(C)C2(C)CC3O)C1OC1OC(CO)C(OC2OCC(O)C(OC3OCC(O)C(O)C3O)C2O)C(O)C1O (stereo not shown) [A26] | 95.6 ± 1.2% | 0.45 ± 0.04 µM | 85.24 | 7.94 µM | 38.4 µM |  |
| CC(=O)OC1C(OC(C)=O)[C@]2(CO)C(OC(C)=O)C[C@]3(C)C(=CCC4[C@@]5(C)CC[C@H](OC6OC(C(C)=O)C(O)C(OC7OC(CO)C(O)C(O)C7O)C6O)C(C)(C)C5CC[C@]43C)C2CC1(C)C (stereo partly shown) [A07] | 10.3 ± 11.7% |  |  | >100 µM | > 100 µM |  |
| C[C@@H]1O[C@@H](O[C@@H]2[C@H](O)[C@@H](O)[C@H](O[C@H]3CC[C@@]4(C)C(CC[C@]5(C)C4C=C[C@]46OC[C@@]7(CCC(C)(C)CC74)[C@@H](O)C[C@]65C)C3(C)C)O[C@@H]2CO[C@@H]2O[C@H](CO)[C@@H](O)[C@H](O)[C@H]2O)[C@H](O)[C@H](O)[C@H]1O (stereo partly shown) [A04, Saikosaponin C] |  |  |  | >100 µM |  | Inhibition rate (%) [1, 5]: 3.1 ± 12.9%; CC50 (Huh-luc/neo-ET cells): > 100 µM |
| C[C@H]1O[C@@H](O[C@H]2CC[C@@]3(C)[C@@H](CC[C@]4(C)[C@@H]3C=C[C@]35OC[C@@]6(CCC(C)(C)C[C@H]63)[C@@H](O)C[C@]54C)[C@]2(C)CO)[C@H](O)[C@@H](O[C@@H]2O[C@H](CO)[C@@H](O)[C@H](O)[C@H]2O)[C@H]1O [A03, Saikosaponin A] |  |  |  | 12.7 µM |  | Inhibition rate (%) [1, 5]: 13.3 ± 8%; CC50 (Huh-luc/neo-ET cells): 23.1 µM |
| C[C@H]1O[C@@H](O[C@H]2CC[C@@]3(C)[C@@H](CC[C@]4(C)[C@@H]3C=C[C@]35OC[C@@]6(CCC(C)(C)C[C@H]63)[C@H](O)C[C@]54C)[C@]2(C)CO)[C@H](O)[C@@H](O[C@@H]2O[C@H](CO)[C@@H](O)[C@H](O)[C@H]2O)[C@H]1O [A05, Saikosaponin D] |  |  |  | 16.1 µM |  | Inhibition rate (%) [1, 5]: 50 ± 11.6%; CC50 (Huh-luc/neo-ET cells): 23.2 µM |
